# From patent US20250109134A1 (Ascentage Pharma (Suzhou) Co., Ltd., priority 2022, published 2025)
# Where a name gives a salt, the structure may show the parent alone.
# Key:
# Type in all cases: physicochemical
# [1] = Stability study, content and related substances (TRS, total impurity content) by HPLC; details: for chemical stability (HPLC, TRS total impurity content): open, 60° C., RT/92.5% RH, RT/75% RH, 40° C./75% RH, up to 30 days
# Protocol: In the present invention, the HPLC (high performance liquid chromatography) test parameters are set as follows:
# Then, the sample flasks were opened to air (sealed with aluminum foil punctured with small holes) and placed in constant temperature and humidity cabinets at high temperature (60° C.), at room temperature and high humidity ([…]), at RT/75% RH, and at 40° C./75% RH for 30 days, respectively, […]
# [2] = XRPD characterization (crystallinity), summary evaluation; details: summary of forms
# From the text: In the present invention, the XRPD test parameters are set as follows: […]
# [3] = Dynamic vapor sorption (DVS) hygroscopicity test; details: for hygroscopic weight gain (DVS): 25° C. and 80% RH; for hygroscopicity (DVS), in words: 80% RH; for crystalline form before and after hygroscopic test (XRPD after DVS): XRPD of sample after DVS
# From the text: In the present invention, the DVS test parameters are set as follows: […]
# [4] = Polymorph screening (suspension, anti-solvent, gas-liquid diffusion, slow volatilization methods), resulting form by XRPD; details: for Crystalline form: suspension method; for Crystalline form results 25° C. / Crystalline form results 50° C.: suspension, from crystalline form B
# Protocol: The sample was quickly centrifuged (6000 rpm, 5 min) to remove a supernatant. The resulting precipitate was subjected to vacuum drying (40° C., −0.1 MPa) for 20 h, followed by physical characterization.
# The resulting precipitate was subjected to vacuum drying at 40° C. for 20 h, followed by physical characterization.
# No clear solution was obtained, and the sample was still undissolved after 1 mL of solvent was added. Then, 500 μL of poor solvent (acetone, ACN, MeOH, EtOAc, THE, or […]) was added, and 40 mg of the sample was added to perform an experiment by a suspension method. All suspension samples were stirred at 50° C. for 2 days and quickly centrifuged (6000 rpm, 5 min) to remove a supernatant. The resulting solid was subjected to vacuum drying at 40° C. for 20 h, followed by physical characterization.
# The compound of formula I was subjected to polymorph screening with DCM as a good solvent and with MeOH, EtOH, THE, or EA as an anti-solvent, and was dissolved in both DCM and MeOH systems. The suspension sample was stirred for 2 days and quickly centrifuged to remove a supernatant. The resulting precipitate was subjected to vacuum drying at 25° C. for 20 h, followed by physical characterization.
# The resulting precipitate was subjected to vacuum drying at room temperature for 20 h, followed by physical characterization.
# The resulting precipitate was subjected to vacuum drying for 20 h.
# Sonication was performed for 1 min to obtain a clear solution, which was filtered through a 0.22 μm filter membrane and aliquoted into seven 8 mL glass flasks. An anti-solvent was added until precipitation occurred. The sample was stirred at room temperature for 1 day and quickly centrifuged. The resulting solid precipitate was subjected to vacuum drying.
# Then, an anti-solvent was added until precipitation occurred, and the mixture was stirred at room temperature overnight and quickly centrifuged (6000 rpm, 6 min) to remove a supernatant. The resulting precipitate was subjected to vacuum drying for 20 h.
# Then, the solution was added to a 20 mL glass flask containing 2 mL of an anti-solvent (shown in the following table), and the flask was tightly capped at room temperature and placed in a fume hood for diffusion. When precipitation occurred, the flask was taken out, and the resulting precipitate was subjected to vacuum drying for 20 h.
# The flask placed in a fume hood at room temperature for diffusion. When precipitation occurred, the flask was taken out, and the resulting precipitate was subjected to vacuum drying for 20 h.
# The mixture was stirred at 50° C. or room temperature for 6 days and quickly centrifuged (6000 rpm, […]) to remove a supernatant. The resulting precipitate was subjected to vacuum drying for 20 h.
# [5] = Stability study, solid form by XRPD after open storage at high temperature / high humidity; details: open, 60° C.; RT/92.5% RH; RT/75% RH; 40° C./75% RH; 30 days
# Protocol: In the present invention, the XRPD test parameters are set as follows:
# Then, the sample flasks were opened to air (sealed with aluminum foil punctured with small holes) and placed in constant temperature and humidity cabinets at high temperature (60° C.), at room temperature and high humidity (RT/92.5% RH), at RT/75% RH, and at 40° C./75% RH for 30 days, respectively, and samples were taken at days 5, 10 and 30 for XRPD and HPLC detection.
# [6] = solvent Acetone-H2O = 1-2, 2 days
smiles,measurement,setting,value
CC(C)N1Cc2cc(C(F)(F)F)ncc2-c2cnc(NCc3c(F)ccc4c3CCO4)n3cnc(c23)C1=O.Cl [Crystalline form A of hydrochloride salt],TRS(%),"[1]; 40° C./75RH %-5 d, open storage",0.30%
same,TRS(%),"[1]; 40° C./75RH %- 10 d, open storage",0.28%
same,TRS(%),"[1]; 40° C./75RH %- 30 d, open storage",0.28%
same,TRS(%),"[1]; 60° C.-5 d, open storage",0.28%
same,TRS(%),"[1]; 60° C.-10 d, open storage",0.34%
same,TRS(%),"[1]; 60° C.-30 d, open storage",0.27%
same,TRS(%),"[1]; Initial, TRS = total impurity content, HPLC",0.31%
same,TRS(%),"[1]; RT/75% RH 7 d, open storage",0.26%
same,TRS(%),"[1]; RT/75% RH 10 d, open storage",0.26%
same,TRS(%),"[1]; RT/75% RH 30 d, open storage",0.37%
same,TRS(%),"[1]; RT/90RH %-5 d, open storage",0.28%
same,TRS(%),"[1]; RT/90RH %-10 d, open storage",0.26%
same,TRS(%),"[1]; RT/90RH %-30 d, open storage",0.27%
CC(C)N1Cc2cc(C(F)(F)F)ncc2-c2cnc(NCc3c(F)ccc4c3CCO4)n3cnc(c23)C1=O.CS(=O)(=O)O [Methanesulfonate salt Crystalline form A],Evaluation results: crystallinity,[2],High crystallinity
CC(C)N1Cc2cc(C(F)(F)F)ncc2-c2cnc(NCc3c(F)ccc4c3CCO4)n3cnc(c23)C1=O.O=S(=O)(O)O [Sulfate Crystalline form A],Evaluation results: hygroscopicity,[3]; summary of forms,Slight hygroscopicity
CC(C)N1Cc2cc(C(F)(F)F)ncc2-c2cnc(NCc3c(F)ccc4c3CCO4)n3cnc(c23)C1=O [compound of formula I],Crystalline form,"[4]; solvent DCM/EA = 1-1, stirred 2 days",Crystalline form A
same,Crystalline form,"[4]; solvent DCM/EtOH = 2-1, stirred 2 days",Crystalline form A
same,Crystalline form,"[4]; solvent DCM/THF = 1-1, stirred 2 days",Crystalline form A
same,Crystalline form,"[4]; solvent DCM, stirred 2 days",Crystalline form A
same,Crystalline form,"[4]; solvent DMF/H2O = 1/3, 50° C., 2 days",Crystalline form B + DMF solvate
same,Crystalline form,"[4]; solvent DMF, 50° C., 2 days",Crystalline form B + DMF solvate
same,Crystalline form,"[4]; solvent NMP/ACN = 1/3, 50° C., 2 days",N-methyl-2-pyrrolidone solvate
same,Crystalline form,"[4]; solvent NMP/EtOAc = 1/3, 50° C., 2 days",N-methyl-2-pyrrolidone solvate
same,Crystalline form,"[4]; solvent NMP/H2O = 1/3, 50° C., 2 days",Crystalline forms A + B
same,Crystalline form,"[4]; solvent NMP/MeOH = 1/3, 50° C., 2 days",N-methyl-2-pyrrolidone solvate
same,Crystalline form,"[4]; solvent NMP/THF = 1/3, 50° C., 2 days",N-methyl-2-pyrrolidone solvate
same,Crystalline form,"[4]; solvent NMP/acetone = 1/3, 50° C., 2 days",N-methyl-2-pyrrolidone solvate
same,Crystalline form,"[4]; solvent NMP, 50° C., 2 days",N-methyl-2-pyrrolidone solvate
CC(C)N1Cc2cc(C(F)(F)F)ncc2-c2cnc(NCc3c(F)ccc4c3CCO4)n3cnc(c23)C1=O [crystalline form A of the compound of formula I],"chemical stability (HPLC, TRS total impurity content)",[1],good chemical stability
same,"change in the crystalline form after storage (XRPD), physical stability",[5],no change in the crystalline form
same,hygroscopic weight gain (DVS),[3],0.44%
same,"hygroscopicity (DVS), in words",[3],slight hygroscopicity
CC(C)N1Cc2cc(C(F)(F)F)ncc2-c2cnc(NCc3c(F)ccc4c3CCO4)n3cnc(c23)C1=O [crystalline form A of the hydrochloride salt of the compound],"chemical stability (HPLC, TRS total impurity content)",[1],good chemical stability
same,"change in the crystalline form after storage (XRPD), physical stability",[5],no change in the crystalline form
same,hygroscopic weight gain (DVS),[3],0.31%
same,"hygroscopicity (DVS), in words",[3],slight hygroscopicity
same,crystalline form before and after hygroscopic test (XRPD after DVS),[3],did not change
CC(C)N1Cc2cc(C(F)(F)F)ncc2-c2cnc(NCc3c(F)ccc4c3CCO4)n3cnc(c23)C1=O [crystalline form A of the methanesulfonate salt of the compo],"change in the crystalline form after storage (XRPD), physical stability",[5],no change in the crystalline form
same,hygroscopic weight gain (DVS),[3],0.84%
same,"hygroscopicity (DVS), in words",[3],slight hygroscopicity
same,crystalline form before and after hygroscopic test (XRPD after DVS),[3],did not change
CC(C)N1Cc2cc(C(F)(F)F)ncc2-c2cnc(NCc3c(F)ccc4c3CCO4)n3cnc(c23)C1=O [crystalline form A of the sulfate salt of the compound of fo],"change in the crystalline form after storage (XRPD), physical stability",[5],no change in the crystalline form
same,hygroscopic weight gain (DVS),[3],1.43%
same,"hygroscopicity (DVS), in words",[3],slight hygroscopicity
same,crystalline form before and after hygroscopic test (XRPD after DVS),[3],did not change
CC(C)N1Cc2cc(C(F)(F)F)ncc2-c2cnc(NCc3c(F)ccc4c3CCO4)n3cnc(c23)C1=O [crystalline form B of the compound of formula I],"chemical stability (HPLC, TRS total impurity content)",[1],good chemical stability
same,"change in the crystalline form after storage (XRPD), physical stability",[5],no change in the crystalline form
same,hygroscopic weight gain (DVS),[3],0.84%
same,"hygroscopicity (DVS), in words",[3],slight hygroscopicity
CC(C)N1Cc2cc(C(F)(F)F)ncc2-c2cnc(NCc3c(F)ccc4c3CCO4)n3cnc(c23)C1=O [crystalline form B],Crystalline form results 25° C.,"[4]; solvent ACN, 2 days",Crystalline form A
same,Crystalline form results 50° C.,"[4]; solvent ACN, 2 days",Crystalline form A
same,Crystalline form results 25° C.,"[4]; solvent ACN—H2O = 1-1, 2 days",Crystalline form A
same,Crystalline form results 50° C.,"[4]; solvent ACN—H2O = 1-1, 2 days",Crystalline form A
same,Crystalline form results 25° C.,[4]; [6],Crystalline form B
same,Crystalline form results 50° C.,[4]; [6],Crystalline form B
same,Crystalline form results 25° C.,"[4]; solvent Acetone, 2 days",Crystalline form B
same,Crystalline form results 50° C.,"[4]; solvent Acetone, 2 days",Crystalline form B
same,Crystalline form results 50° C.,"[4]; solvent EtOAc, 2 days",Crystalline form B
same,Crystalline form results 25° C.,"[4]; solvent EtOH, 2 days",Crystalline form B
same,Crystalline form results 50° C.,"[4]; solvent EtOH, 2 days",Crystalline form A
same,Crystalline form results 25° C.,"[4]; solvent EtOH—H2O 1-1, 2 days",Crystalline form B
same,Crystalline form results 50° C.,"[4]; solvent EtOH—H2O 1-1, 2 days",Crystalline form A
same,Crystalline form results 25° C.,"[4]; solvent EtOH—H2O = 3-1, 2 days",Crystalline form B
same,Crystalline form results 50° C.,"[4]; solvent EtOH—H2O = 3-1, 2 days",Crystalline form A
same,Crystalline form results 25° C.,"[4]; solvent H2O, 2 days",Crystalline form B
same,Crystalline form results 50° C.,"[4]; solvent H2O, 2 days",Crystalline form B
same,Crystalline form results 25° C.,"[4]; solvent Heptane, 2 days",Crystalline form B
same,Crystalline form results 25° C.,"[4]; solvent MTBE, 2 days",Crystalline form E
same,Crystalline form results 50° C.,"[4]; solvent MTBE, 2 days",Crystalline form G
same,Crystalline form results 25° C.,"[4]; solvent MeOH, 2 days",Crystalline form A
same,Crystalline form results 50° C.,"[4]; solvent MeOH, 2 days",Crystalline form A
same,Crystalline form results 25° C.,"[4]; solvent MeOH—H2O 1-1, 2 days",Crystalline form F
same,Crystalline form results 50° C.,"[4]; solvent MeOH—H2O 1-1, 2 days",Crystalline form A
same,Crystalline form results 25° C.,"[4]; solvent MeOH—H2O = 3-1, 2 days",Crystalline form A
same,Crystalline form results 25° C.,"[4]; solvent THF, 2 days",Crystalline form B
same,Crystalline form results 50° C.,"[4]; solvent THF, 2 days",Crystalline form B
same,Crystalline form results 25° C.,"[4]; solvent Toluene, 2 days",Toluene solvate
CC(C)N1Cc2cc(C(F)(F)F)ncc2-c2cnc(NCc3c(F)ccc4c3CCO4)n3cnc(c23)C1=O.Cc1ccc(S(=O)(=O)O)cc1 [p-toluenesulfonate Crystalline form A],Evaluation results: crystallinity,[2],High crystallinity
